From patent US20130116241A1, “NOVEL INHIBITOR COMPOUNDS OF PHOSPHODIESTERASE TYPE 10A” (AbbVie Inc., priority 2011, published 2013)
Structures can show the parent of a compound that is named as a salt.

Target: human PDE10A (UniProt Q9Y233)
Test: Measurement of PDE activity (recombinant enzyme, HTRF cAMP kit)
Format: biochemical
Conditions: Table 1, substrate 20 nM for PDE10, 60 minutes at 29 C, read-out: IC50
Procedure, shortened: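 HTRF detection of cAMP left after hydrolysis, expressed as percent of uninhibited control to derive IC50. Reaction: serially diluted inhibitor mixed with recombinant enzyme, started with 20 nM cAMP, 60 min at 29 °C in Tris-HCl pH 7.5 buffer containing MgCl2 and BSA.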

Chain of human PDE10A (Q9Y233 290-1055 limits assumed): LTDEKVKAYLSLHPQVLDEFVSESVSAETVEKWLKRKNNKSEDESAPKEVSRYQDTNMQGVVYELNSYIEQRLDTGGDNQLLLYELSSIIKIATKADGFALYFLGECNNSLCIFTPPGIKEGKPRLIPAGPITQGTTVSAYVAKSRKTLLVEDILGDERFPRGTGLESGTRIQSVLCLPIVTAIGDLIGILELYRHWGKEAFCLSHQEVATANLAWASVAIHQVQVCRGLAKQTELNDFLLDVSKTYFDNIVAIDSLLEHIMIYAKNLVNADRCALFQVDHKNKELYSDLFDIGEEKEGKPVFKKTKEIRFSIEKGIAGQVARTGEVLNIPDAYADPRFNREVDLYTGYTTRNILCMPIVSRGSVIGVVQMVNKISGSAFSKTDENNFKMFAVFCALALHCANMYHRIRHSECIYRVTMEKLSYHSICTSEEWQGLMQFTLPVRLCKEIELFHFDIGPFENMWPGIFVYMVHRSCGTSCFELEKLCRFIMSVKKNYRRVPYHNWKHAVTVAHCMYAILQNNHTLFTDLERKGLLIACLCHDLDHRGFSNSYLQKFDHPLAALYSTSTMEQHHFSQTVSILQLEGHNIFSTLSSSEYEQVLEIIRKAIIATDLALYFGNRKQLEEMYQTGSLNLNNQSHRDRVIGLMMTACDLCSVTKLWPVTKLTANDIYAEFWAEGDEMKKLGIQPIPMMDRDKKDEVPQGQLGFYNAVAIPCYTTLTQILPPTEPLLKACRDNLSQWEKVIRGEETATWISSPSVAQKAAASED

IC50 [nM]	Compound
200 to 500	O=c1c2c(OCC3COC(CO)CO3)cccc2cnn1CCc1cn2ccccc2n1 (centres unmarked) [compound 378, 8-{[5-(hydroxymethyl)-1,4-dioxan-2-yl]methoxy}-2-[2-(imidazo[1,2-a]pyridin-2-yl)ethyl]phthalazin-1(2H)-one]
200 to 500	CN1CC(Nc2cccc3cnn(CCc4cn5ccccc5n4)c(=O)c23)C1 [compound 385, 2-[2-(imidazo[1,2-a]pyridin-2-yl)ethyl]-8-[(1-methylazetidin-3-yl)amino]phthalazin-1(2H)-one]
100 to 200	O=c1c2c(-c3cc(F)ccc3F)cccc2cnn1CCc1ccc2ccccc2n1 [Example 153, 8-(2,5-Difluorophenyl)-2-[2-(quinolin-2-yl)ethyl]phthalazin-1(2H)-one]
200 to 500	CN(CC1(C)COC1)c1cccc2cnn(CCc3cn4ccccc4n3)c(=O)c12 [compound 394, 2-[2-(imidazo[1,2-a]pyridin-2-yl)ethyl]-8-{methyl[(3-methyloxetan-3-yl)methyl]amino}phthalazin-1(2H)-one]
100 to 200	O=c1c2c(-c3cccc(F)c3F)csc2cnn1CCc1ccc2ccccc2n1 [Example 70, 3-(2,3-difluorophenyl)-5-[2-(quinolin-2-yl)ethyl]thieno[2,3-d]pyridazin-4(5H)-one]
< 100	O=c1c2c(-c3ccncc3)csc2cnn1C1CC1c1ccc2ccccc2n1 (centres unmarked) [compound 295]
200 to 500	COc1cc(F)cc(-c2cccc3cnn(CCc4ccc5ccccc5n4)c(=O)c23)c1 [Example 157, 8-(3-Fluoro-5-methoxyphenyl)-2-[2-(quinolin-2-yl)ethyl]phthalazin-1(2H)-one]
< 100	O=c1c2c(-c3ccc(F)nc3)csc2ccn1C1CC1c1ccc2ccccc2n1 (centres unmarked) [compound 283]
200 to 500	Cc1ccc(-c2cccc3cnn(CCc4ccc5ccccc5n4)c(=O)c23)cc1 [Example 100, 8-(4-Methylphenyl)-2-[2-(quinolin-2-yl)ethyl]phthalazin-1(2H)-one]
< 100	O=c1c2c(-c3cccc(F)c3)cccc2cnn1CCc1ccc2ccccc2n1 [Example 115, 8-(3-Fluorophenyl)-2-[2-(quinolin-2-yl)ethyl]phthalazin-1(2H)-one]
< 100	O=c1c2c(-c3ccncc3F)cccc2ccn1[C@@H]1C[C@H]1c1ccc2ccccc2n1 (relative stereo) [Example 242, anti 8-(3-fluoropyridin-4-yl)-2-(2-(quinolin-2-yl)cyclopropyl)isoquinolin-1(2H)-one]

Continued, molecule first:

Compound	IC50 [nM]
O=c1c2c(-c3ccccc3F)csc2cnn1CCc1ccc2ccccc2n1 [Example 20, 3-(2-fluorophenyl)-5-[2-(quinolin-2-yl)ethyl]thieno[2,3-d]pyridazin-4(5H)-one]	< 100
O=c1c2c(-c3ccncc3O)csc2ccn1CCc1ccc2ccccc2n1 [Example 203, 3-(3-Hydroxypyridin-4-yl)-5-[2-(quinolin-2-yl)ethyl]thieno[3,2-c]pyridin-4(5H)-one hydrochloride]	200 to 500
O=c1c2c(-c3cncnc3)cccc2cnn1CCc1cn2ccccc2n1 [Example 168, 2-[2-(Imidazo[1,2-a]pyridin-2-yl)ethyl]-8-(pyrimidin-5-yl)phthalazin-1(2H)-one]	< 100
O=c1c2c(C3CCOCC3)cccc2cnn1CCc1cn2ccccc2n1 [compound 355, 2-[2-(imidazo[1,2-a]pyridin-2-yl)ethyl]-8-(tetrahydro-2H-pyran-4-yl)phthalazin-1(2H)-one]	< 100
O=c1c2c(NC3COC3)cccc2ccn1[C@@H]1C[C@H]1c1ccc2ccccc2n1 (racemic) [Example 235, anti 8-(Oxetan-3-ylamino)-2-(2-(quinolin-2-yl)cyclopropyl)isoquinolin-1(2H)-one]	< 100
N#Cc1ccc(-c2csc3cnn(CCc4ccc5ccccc5n4)c(=O)c23)cc1 [Example 10, 4-{4-oxo-5-[2-(quinolin-2-yl)ethyl]-4,5-dihydrothieno[2,3-d]pyridazin-3-yl}benzonitrile]	< 100
O=c1c2c(-c3ccncc3)csc2cnn1CC(F)(F)c1ccc2ccccc2n1 [Example 94, 5-[2,2-Difluoro-2-(quinolin-2-yl)ethyl]-3-(pyridin-4-yl)thieno[2,3-d]pyridazin-4(5H)-one]	< 100
Cc1cc2ccccc2nc1CCn1ccc2cccc(-c3ccncc3)c2c1=O [compound 327, 2-[2-(3-methylquinolin-2-yl)ethyl]-8-(pyridin-4-yl)isoquinolin-1(2H)-one]	< 100
O=c1c2c(-c3ccc4c(c3)CCO4)cccc2cnn1CCc1ccc2ccccc2n1 [Example 130, 8-(2,3-Dihydro-1-benzofuran-5-yl)-2-[2-(quinolin-2-yl)ethyl]phthalazin-1(2H)-one]	200 to 500
O=c1c2c(-c3ccncc3)cncc2cnn1CCc1ccc2ccccc2n1 [Example 301, 8-(pyridin-4-yl)-2-[2-(quinolin-2-yl)ethyl]pyrido[3,4-d]pyridazin-1(2H)-one]	< 100
COc1cnccc1-c1cccc2cnn(CCc3cn4ccccc4n3)c(=O)c12 [Example 167, 2-[2-(Imidazo[1,2-a]pyridin-2-yl)ethyl]-8-(3-methoxypyridin-4-yl)phthalazin-1(2H)-one]	200 to 500
C=C(Cn1ncc2nccc(-c3ccncc3)c2c1=O)c1ccc2ccccc2n1 [Example 234, 4-(Pyridin-4-yl)-6-(2-(quinolin-2-yl)allyl)pyrido[2,3-d]pyridazin-5(6H)-one]	< 100
COc1cncc(-c2cccc3cnn(CCc4ccc5ccccc5n4)c(=O)c23)c1 [Example 136, 8-(5-Methoxypyridin-3-yl)-2-[2-(quinolin-2-yl)ethyl]phthalazin-1(2H)-one]	< 100
O=c1c2c(-c3ccccc3)cccc2cnn1CCc1ccc2ccccc2n1 [Example 159, 8-Phenyl-2-[2-(quinolin-2-yl)ethyl]phthalazin-1(2H)-one]	< 100
O=c1c2c(N3CCOCC3)ccnc2cnn1CCc1ccc2ccccc2n1 [compound 405, 4-(morpholin-4-yl)-6-[2-(quinolin-2-yl)ethyl]pyrido[2,3-d]pyridazin-5(6H)-one]	< 100
Cc1cc2ccccc2nc1CCn1ccc2scc(-c3ccncc3)c2c1=O [compound 306, 5-[2-(3-methylquinolin-2-yl)ethyl]-3-(pyridin-4-yl)thieno[3,2-c]pyridin-4(5H)-one]	< 100
O=c1c2c(-c3cncnc3)coc2ccn1CCc1ccc2ccccc2n1 [Example 231, 3-(Pyrimidin-5-yl)-5-(2-(quinolin-2-yl)ethyl)furo[3,2-c]pyridin-4(5H)-one]	< 100
O=c1c2c(C3=COCC3)cccc2ccn1C1CC1c1ccc2ccccc2n1 (stereo not drawn) [Example 269, anti 8-(4,5-dihydrofuran-3-yl)-2-(2-(quinolin-2-yl)cyclopropyl)isoquinolin-1(2H)-one]	< 100
O=c1c2c(-c3ccncc3)csc2ccn1CCc1ccc2cccc(F)c2n1 [compound 307, 5-[2-(8-fluoroquinolin-2-yl)ethyl]-3-(pyridin-4-yl)thieno[3,2-c]pyridin-4(5H)-one]	200 to 500
O=c1c2c(-c3ccc4cc[nH]c4c3)cccc2cnn1CCc1ccc2ccccc2n1 [Example 123, 8-(1H-Indol-6-yl)-2-[2-(quinolin-2-yl)ethyl]phthalazin-1(2H)-one]	200 to 500
O=c1c2cccc(N3CCS(=O)(=O)CC3)c2cnn1CCc1ccc2ccccc2n1 [Example 195, 5-(1,1-Dioxidothiomorpholin-4-yl)-2-[2-(quinolin-2-yl)ethyl]phthalazin-1(2H)-one]	100 to 200
